Read-outs that look alike come from different tables or passages of the source. Where a SMILES comes first, the peptide text is derived from it. Bridges are numbered along the chain shown (N, C = ends). [ ]: non-standard residue; d: D form. hArg = N=C(N)NCCCC[C@H](N)C(=O)O; Mpa = O=C(O)CCS
Key:
[1] = system: platelets (platelet rich plasma); test: Transmission light aggregometry, arachidonic acid-induced platelet aggregation in PRP; format: cell-based, human
Text: (§1) Platelets will aggregate with collagen and arachidonic acid stimulation. […] The PL chip system on the T-TAS® was used to emulate in vitro platelet binding and aggregation due to the exposure of collagen in the vasculature under shear conditions.
Plasma samples with platelet or thrombosomes or combination of both are loaded into cuvettes and placed into the aggregometry chambers. The chambers warm the sample and provide constant stirring. The initiation of aggregation can be done by multiple types of […] agents not limited to thrombin, ADP, collagen and any agent known to stimulate platelet aggregation. […] The instrument begins the assay by first recording the light transmission previous to stimulation for 2 minutes. The stimulant of interest is then introduced by the technician and the change in light transmission is recorded over time. The increase in light transmission corresponds to increase in platelet aggregation.
Platelet rich plasma was taken from subject on 800 mg ibuprofen.

[2] = system: platelets (platelet rich plasma); test: Transmission light aggregometry, collagen-induced platelet aggregation in PRP; format: cell-based, human
Protocol: The aggregation of platelets (in platelet rich plasma) was evaluated using transmission light aggregrometry. […] (FIG. 8).
as §1
(§2) Plasma samples with platelet or thrombosomes or combination of both are loaded into cuvettes and placed into the aggregometry chambers. The chambers warm the sample and provide constant stirring. The initiation of aggregation can be done by multiple types of […] agents not limited to thrombin, ADP, collagen and any agent known to stimulate platelet aggregation. The samples can also have been taken as ex-vivo, or in-vitro supplemented with inhibitors. The instrument begins the assay by first recording the light transmission previous to stimulation for 2 minutes. The stimulant of interest is then introduced by the technician and the change in light transmission is recorded over time. The increase in light transmission corresponds to increase in platelet aggregation.

platelet rich plasma [3] = test: T-TAS AR chip (collagen and tissue factor) occlusion under shear, platelet rich plasma; format: cell-based, human
whole blood [4] = test: T-TAS PL chip (collagen only) thrombus formation, whole blood; format: cell-based, human; settings: whole blood with 100 and 500 μM aspirin; FIG. 17
Text: (§3) In the Total Thrombus-formation Analysis System (T-TAS®, FUJIMORI KOGYO CO., LTD), the sample is forced through collagen-coated microchannels using mineral oil. Changes in pressure are used to assess thrombus formation. The Occlusion Start Time is time it takes to reach 10 kPa, and the Occlusion Time=time it takes to each Δ80 kPa using an AR chip (e.g., Zacros Item No, TC0101). According to the manufacturer, an AR chip can be used for analyzing the formation of a mixed white thrombus consisting chiefly of fibrin and activated platelets. It has a flow path (300 μm wide by 50 μm high) coated with collagen and tissue factors and can be used to analyze the clotting function and platelet function. In comparison, a PL chip can be used for analyzing the formation of a platelet thrombus consisting chiefly of activated platelets. A PL chip has a flow path coated with collagen only and can be used to analyze the platelet function.
as §1
Evaluation by T-TAS® Using a PL Chip
PL chips are run similarly to AR chips, but this chip is only coated with collagen alone.

[5] = system: platelets (platelet rich plasma); test: Transmission light aggregometry, ADP-induced platelet aggregation in PRP; format: cell-based, human; settings: cangrelor 0.5 μM-3.5 μM, 10 μM ADP, FIG. 1
Text: as §2

platelet rich plasma [6] = test: T-TAS AR chip (collagen and tissue factor) occlusion under shear, platelet rich plasma; format: cell-based, human; settings: for area under the curve (AUC): FIG. 3; for time to occlusion: FIG. 4
Text: as §3
The effect of cangrelor on platelet occlusion under shear was evaluated by T-TAS®.
Evaluation by T-TAS® using an AR chip. AR chips are characterized by a single channel containing collagen and tissue factor; they can be used to analyze clotting and platelet function.

NOD/SCID mice = test: Tail-snip bleed model in clopidogrel-treated NOD/SCID mice; format: in vivo, mouse; settings: ~3 times the clinical dose of clopidogrel for 5 days (untreated 9 minutes)
Protocol: The mouse was treated with clopidogrel for 5 days. The mouse was anesthetized, the tail end was snipped off followed by thrombosomes being immediately administered. The time from tail snip to tail stop bleeding was recorded by visual inspection.
NOD/SCID mice were treated with ˜ 3 times the clinical dose of clopidogrel for 5 days then assessed in the tail-snip bleed model. The bleed time (min) was extended to 17.8 minutes with clopidogrel treatment verses untreated at 9 minutes (data not shown).

platelets = settings: cited from earlier work
whole blood [7] = test: T-TAS AR chip occlusion under shear, whole blood; format: cell-based, human; settings: whole blood with 6 μM eptifibatide (whole blood alone 8 minutes); FIG. 9
Text: as §3
The effect of thrombosomes on shortening clotting times while in the presence of eptifibatide was also studied. The ability of thrombosomes to recover occlusion times was studied on the T-TAS® system. The T-TAS® system measures occlusion time under shear forces with collagen and thromboplastin stimulation. The whole blood profile of occlusion and AUC on the AR T-TAS® chip lengthened and decreased, respectively, with eptifibatide. […]

CC(=O)Oc1ccccc1C(=O)O [aspirin, acetylsalicylic acid]
arachidonic acid-induced platelet aggregation ([1]; AA 500 ug/mL, aspirin 100-400 μM, PRP, FIG. 16): completely inhibited
collagen-induced platelet aggregation ([2]; collagen 10 ug/mL, aspirin 100-400 μM, FIG. 16): partially inhibited
occlusion on T-TAS flow system (platelet rich plasma [3]; PRP taken from a subject on 81 mg/day aspirin, FIGS. 29A, 29B): failed to occlude
platelet binding and aggregation on collagen under shear (PL chip) (whole blood [4]): largely limited

CSCCNc1nc(SCCC(F)(F)F)nc2c1ncn2[C@@H]1O[C@H](COP(=O)(O)OP(=O)(O)C(Cl)(Cl)P(=O)(O)O)[C@@H](O)[C@H]1O [cangrelor]
ADP-induced platelet aggregation (integrated aggregation curve) [5]: complete inhibition
occlusion time (platelet rich plasma [6]; PRP treated with 100 ng/mL cangrelor and ADP (from 19), FIGS. 25A, 25B): 26 min
platelet adhesion and occlusion on AR chip (platelet rich plasma [6]; cangrelor 1 μM combined with ADP 10 μM, PRP, FIG. 2): essentially eliminated
platelet occlusion on AR chip (platelet rich plasma [6]; cangrelor alone 1 μM, PRP, FIG. 2): did not exhibit inhibition on occlusion
area under the curve (AUC) (platelet rich plasma [6]; cangrelor alone, PRP): little effect on AUC value
time to occlusion (platelet rich plasma [6]; cangrelor alone, PRP): little effect on occlusion times
area under the curve (AUC) (platelet rich plasma [6]; cangrelor combined with ADP stimulation, PRP): dropped close to zero
time to occlusion (platelet rich plasma [6]; cangrelor plus ADP stimulation, PRP): inhibited occlusion essentially completely

COC(=O)[C@H](c1ccccc1Cl)N1CCc2sccc2C1 [clopidogrel]
bleed time (NOD/SCID mice): 17.8 min
time to return of platelet function (platelets; after stopping infusion): approximately 1 hour

N=C(N)NCCCC[C@@H]1NC(=O)CCSSC[C@@H](C(N)=O)NC(=O)[C@@H]2CCCN2C(=O)[C@H](Cc2c[nH]c3ccccc23)NC(=O)[C@H](CC(=O)O)NC(=O)CNC1=O [eptifibatide] ([Mpa][hArg]GDWPC-NH2; disulfide 1-7)
collagen-induced platelet aggregation ([2]; collagen 10 μg/mL, all eptifibatide concentrations tested, FIG. 8): completely inhibited
occlusion time (platelet rich plasma [3]; PRP treated with 9 μM eptifibatide (from 18.43), FIGS. 27A, 27B): over 30 minutes
occlusion time (whole blood [7]): 16 min
time for bleeding time to return to normal after drug stoppage (platelets; after drug stoppage): ≤ 1 h

CC(C)Cc1ccc(C(C)C(=O)O)cc1 (centres unmarked) [ibuprofen]
aggregation in response to arachidonic acid ([1]; PRP from subject on 800 mg ibuprofen, FIG. 31A): lack of aggregation
occlusion on T-TAS flow system (platelet rich plasma [3]; PRP from subject on 800 mg ibuprofen, addition of ADP, FIG. 31B): abolished occlusion
occlusion on T-TAS flow system (platelet rich plasma [3]; PRP from subject on 800 mg ibuprofen, no ADP, FIG. 31B): demonstrated occlusion

CCCSc1nc(N[C@@H]2C[C@H]2c2ccc(F)c(F)c2)c2nnn([C@@H]3C[C@H](OCCO)[C@@H](O)[C@H]3O)c2n1 [ticagrelor]
time to return of platelet function (platelets; after the last dosage): approximately 72 hours

CCCCS(=O)(=O)N[C@@H](Cc1ccc(OCCCCC2CCNCC2)cc1)C(=O)O [tirofiban]
occlusion time (platelet rich plasma [3]; PRP treated with 100 ng/mL tirofiban (from 18.43), FIGS. 26A, 26B): no occlusion
